# Data as given in ChEMBL document CHEMBL1201862, “PubChem BioAssay data set” (2004).
# The source made the active and inactive calls.
# Target: Cytochrome P450 2C9 (Homo sapiens, UniProt P11712)
# Experiment: not given
# Settings: not given
# Sequence of Cytochrome P450 2C9 (P11712 whole entry): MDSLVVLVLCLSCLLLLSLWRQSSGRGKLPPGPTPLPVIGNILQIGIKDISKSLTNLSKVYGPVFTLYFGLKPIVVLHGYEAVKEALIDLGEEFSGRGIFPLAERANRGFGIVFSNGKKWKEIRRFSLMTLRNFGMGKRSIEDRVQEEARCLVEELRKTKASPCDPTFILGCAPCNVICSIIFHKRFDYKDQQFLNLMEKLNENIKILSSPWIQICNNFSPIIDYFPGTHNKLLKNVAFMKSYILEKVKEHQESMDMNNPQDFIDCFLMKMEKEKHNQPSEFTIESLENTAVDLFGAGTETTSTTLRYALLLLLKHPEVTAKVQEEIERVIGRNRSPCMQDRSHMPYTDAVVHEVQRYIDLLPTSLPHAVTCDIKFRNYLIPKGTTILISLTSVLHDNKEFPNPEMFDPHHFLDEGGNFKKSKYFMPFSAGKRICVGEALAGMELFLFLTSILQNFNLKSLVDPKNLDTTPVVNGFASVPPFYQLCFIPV
row,SMILES,AC50
1,COC(=O)C1=C(NC(=O)c2ccc(C)c(C)c2)CCS1,14.1 µM (inconclusive)

# Tested on: not listed separately
# Experiment: Luminescence Cell-Based Dose Confirmation HTS to Identify Activators of 5'UTR Stem-Loop Driven Alpha-Synuclein mRNA Translation in H4 Neuroglioblastoma Cells. [Related pubchem assays: 1829 (Project Summary), 1814 (Primary HTS)]
# Assay type: functional
# Settings: not given
row,SMILES,EC50
1,COC(=O)C1=C(NC(=O)c2ccc(C)c(C)c2)CCS1,> 120 µM (not active)

# Target: T1, Polyadenylate-binding protein 1 (Homo sapiens, UniProt P11940)
# Experiment: PABP1 MLLE–PAM2 interaction inhibitors, dose response, miRNA deadenylation inhibitor project, biochemical, fluorescence polarization, Cy5-PAM2 peptide, secondary (AID 602260)
# Assay type: functional
# Settings: read-out: IC50_Mean
# T1 sequence (P11940 whole entry): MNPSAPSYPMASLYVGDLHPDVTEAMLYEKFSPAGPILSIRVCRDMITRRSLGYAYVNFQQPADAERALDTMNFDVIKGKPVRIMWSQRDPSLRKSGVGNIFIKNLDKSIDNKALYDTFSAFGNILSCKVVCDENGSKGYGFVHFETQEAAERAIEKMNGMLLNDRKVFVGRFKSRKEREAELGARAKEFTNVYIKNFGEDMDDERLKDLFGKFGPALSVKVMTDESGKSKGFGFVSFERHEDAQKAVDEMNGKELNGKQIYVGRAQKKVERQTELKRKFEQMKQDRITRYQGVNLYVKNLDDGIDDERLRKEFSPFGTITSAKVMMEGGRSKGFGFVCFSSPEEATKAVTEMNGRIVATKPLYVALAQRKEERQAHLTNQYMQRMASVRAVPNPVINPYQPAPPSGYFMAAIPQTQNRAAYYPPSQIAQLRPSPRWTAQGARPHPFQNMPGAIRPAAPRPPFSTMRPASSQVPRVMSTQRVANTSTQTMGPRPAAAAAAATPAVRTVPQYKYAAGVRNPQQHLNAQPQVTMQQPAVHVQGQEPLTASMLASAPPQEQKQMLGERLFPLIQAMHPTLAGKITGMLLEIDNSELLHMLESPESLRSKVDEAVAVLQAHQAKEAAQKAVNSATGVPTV
row,SMILES,IC50
1,COc1cc(NC(S)=Nc2ccc(OC(F)F)cc2)cc(OC)c1,> 66 µM (inactive)
2,O=C(O)CSc1c2ccccc2cc2ccccc12,> 66 µM (inactive)
3,NC(=O)c1ccsc1NC(=O)CSc1nc2ccccc2c(=O)n1CCCO,> 66 µM (inactive)
4,COC(=O)c1sccc1N=C(S)Nc1cc(C)cc(C)c1,> 66 µM (inactive)
5,CCOC(=O)c1ccc(N2C(=O)CC(Sc3ncccn3)C2=O)cc1 (stereo not given),> 66 µM (inactive)
6,O=C(CSc1ccc(-c2ccncc2)nn1)c1ccccc1,> 66 µM (inactive)
7,N#Cc1c(O)nc(S)nc1-c1cccc(Cl)c1,> 66 µM (inactive)
8,COc1ccc(C(=O)CN2CCN(S(=O)(=O)c3cccc([N+](=O)[O-])c3)CC2)cc1OC,> 66 µM (inactive)
9,Cc1c(N2C(=O)S/C(=C3\C(=O)Nc4ccccc43)C2=O)c(=O)n(-c2ccccc2)n1C,> 66 µM (inactive)
10,COC(=O)C1=C(NC(=O)c2ccc(C)c(C)c2)CCS1,> 66 µM (inactive)
11,CC=CCn1c(SCc2ccccc2)nc2c1c(=O)[nH]c(=O)n2C,> 66 µM (inactive)

# Tested on: H4
# Experiment: Luminescence Cell-Based Dose Response HTS to Identify Activators of 5'UTR Stem-Loop Driven Prion Protein mRNA Translation in H4 Neuroglioblastoma Cells. [Related pubchem assays: 1829 (Project Summary), 1814 (Primary HTS)]
# Assay type: functional
# Settings: Homo sapiens
row,SMILES,EC50
1,COC(=O)C1=C(NC(=O)c2ccc(C)c(C)c2)CCS1,19 µM (active)

# Tested on: not listed separately
# Experiment: inhibitors of clade B AD8 Env fusion, dose response, cell-based, cherry-pick (AID 652062);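 further: luciferase signal from cell-cell fusion driven by HIV-1 clade B AD8 Env; potency is for inhibitors of fusion seen as a drop in luminescence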
# Assay type: functional
# Settings: not given
row,SMILES,AC50
1,C[C@@H]1CN([C@H](C)CO)S(=O)(=O)c2ccc(-c3cccc(F)c3)cc2O[C@@H]1CN(C)S(=O)(=O)c1ccccc1,31.6 µM (active)
2,C[C@H]1CN([C@@H](C)CO)S(=O)(=O)c2ccc(Br)cc2O[C@H]1CN(C)S(=O)(=O)c1ccc(F)cc1,29.7 µM (active)
3,CO[C@H]1CN(C)C(=O)c2ccc(NC(=O)C3CCC3)cc2OC[C@@H](C)N(CC2CCCCC2)C[C@@H]1C,19.9 µM (active)

# Tested on: not listed separately
# Experiment: inhibitors of HIV Env-driven cell fusion, dose response, cherry-pick (AID 652057)
# Assay type: functional, cell-based
# Settings: not given
row,SMILES,AC50
1,CC1(C(=O)NCc2ccc3c(c2)OCO3)CCN1Cc1csc2ccccc12 (stereo not given),43 µM (active)
2,C[C@@H]1CN([C@H](C)CO)S(=O)(=O)c2ccc(-c3cccc(F)c3)cc2O[C@@H]1CN(C)S(=O)(=O)c1ccccc1,3.28 µM (active)
3,C[C@H]1CN([C@@H](C)CO)C(=O)Cc2cc(N(C)C)ccc2O[C@H]1CN(C)Cc1ccc(Cl)c(Cl)c1,40.2 µM (active)
4,C[C@H]1CN([C@@H](C)CO)S(=O)(=O)c2ccc(Br)cc2O[C@H]1CN(C)S(=O)(=O)c1ccc(F)cc1,2.84 µM (active)
5,CO[C@H]1CN(C)C(=O)c2ccc(NC(=O)C3CCC3)cc2OC[C@@H](C)N(CC2CCCCC2)C[C@@H]1C,10.1 µM (active)

# Tested on: BJ
# Experiment: cells
# Assay type: functional, cell-based
# Settings: Homo sapiens
row,SMILES,EC50
1,COc1ccc(-n2c(SCC(=O)Nc3ncc(Cl)cc3Cl)nc3ccccc32)cc1,139 µM (active)
2,Brc1ccc(-c2nnc3sc(CN4CCN(c5ccccc5)CC4)cn23)cc1,> 150 µM (not active)
3,COc1ccc(/C=C(\C#N)c2c[nH]c3ccccc23)cc1,20 µM (inconclusive)
4,O=C(Cc1ccc(N2CCNC2=O)cc1)N1CCCC(Nc2ccc(F)c(F)c2)C1 (stereo not given),3.98 µM (active)

# Tested on: not listed separately
# Experiment: ZM109 Env clade C HIV-1 fusion inhibitors, dose response, HeLa effector, CEM target cells, luciferase, cherry-pick (AID 652058)
# Assay type: functional, cell-based
# Settings: not given
row,SMILES,AC50
1,C[C@@H]1CN([C@H](C)CO)S(=O)(=O)c2ccc(-c3cccc(F)c3)cc2O[C@@H]1CN(C)S(=O)(=O)c1ccccc1,2.78 µM (active)
2,C[C@H]1CN([C@@H](C)CO)S(=O)(=O)c2ccc(Br)cc2O[C@H]1CN(C)S(=O)(=O)c1ccc(F)cc1,3.04 µM (active)
3,CO[C@H]1CN(C)C(=O)c2ccc(NC(=O)C3CCC3)cc2OC[C@@H](C)N(CC2CCCCC2)C[C@@H]1C,3.18 µM (active)

# Target: T2, Calpain-2 catalytic subunit (Sus scrofa, UniProt P43367)
# T2 sequence (P43367 whole entry): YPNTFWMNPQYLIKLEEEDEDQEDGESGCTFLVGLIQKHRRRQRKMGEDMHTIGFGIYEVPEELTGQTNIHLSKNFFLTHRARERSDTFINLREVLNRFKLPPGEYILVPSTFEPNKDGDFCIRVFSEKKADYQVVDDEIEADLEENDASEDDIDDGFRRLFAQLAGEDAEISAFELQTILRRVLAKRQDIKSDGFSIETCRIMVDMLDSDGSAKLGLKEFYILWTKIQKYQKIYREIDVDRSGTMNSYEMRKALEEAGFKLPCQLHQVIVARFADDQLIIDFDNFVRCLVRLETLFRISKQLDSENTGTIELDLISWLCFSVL
# Experiment: pig calpain II inhibitor potency, dose response, biochemical, fluorogenic peptide substrate (AID 1420)
# Assay type: functional
# Settings: not given
row,SMILES,IC50
1,Nn1c(Cc2cccc3ccccc23)nnc1SCc1ccc(Cl)c(Cl)c1,< 0.4 µM (not active)
2,Cc1cc2cc(CN=C(S)NC3CCCCC3)ccc2[nH]1,34.6 µM (not active)

# Tested on: BJ
# Experiment: cytotoxicity toward BJ-TERT-LT-ST fibroblasts, dose response, cell-based, RAS-independent, luminescence (AID 1935);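 further: BJ fibroblasts immortalized with TERT plus LT and ST oncogenes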
# Assay type: functional
# Settings: Homo sapiens
row,SMILES,EC50
1,COc1ccc(-n2c(SCC(=O)Nc3ncc(Cl)cc3Cl)nc3ccccc32)cc1,> 150 µM (inconclusive)
2,Brc1ccc(-c2nnc3sc(CN4CCN(c5ccccc5)CC4)cn23)cc1,> 150 µM (not active)
3,COc1ccc(/C=C(\C#N)c2c[nH]c3ccccc23)cc1,1.76 µM (inconclusive)
4,O=C(Cc1ccc(N2CCNC2=O)cc1)N1CCCC(Nc2ccc(F)c(F)c2)C1 (stereo not given),4.14 µM (active)

# Tested on: not listed separately
# Experiment: NIH-3T3 fibroblast cytotoxicity, dose response, cytotoxicity control, cell-based, fluorescence, Alamar Blue, secondary assay (AID 2327);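 further: NIH-3T3 mouse fibroblasts cultured with fluconazole at 8 µg/mL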
# Assay type: functional
# Settings: not given
row,SMILES,EC50
1,Brc1ccc(-c2nnc3sc(CN4CCN(c5ccccc5)CC4)cn23)cc1,> 150 µM (inactive)

# Tested on: not listed separately
# Experiment: cytotoxicity toward DRD oncogenic fibroblasts, dose response, cell-based, non-viral oncogenic, luminescence (AID 1934)
# Assay type: functional
# Settings: Homo sapiens
row,SMILES,EC50
1,COc1ccc(-n2c(SCC(=O)Nc3ncc(Cl)cc3Cl)nc3ccccc32)cc1,137 µM (active)
2,Brc1ccc(-c2nnc3sc(CN4CCN(c5ccccc5)CC4)cn23)cc1,> 150 µM (not active)
3,COc1ccc(/C=C(\C#N)c2c[nH]c3ccccc23)cc1,0.441 µM (active)
4,O=C(Cc1ccc(N2CCNC2=O)cc1)N1CCCC(Nc2ccc(F)c(F)c2)C1 (stereo not given),14.9 µM (inconclusive)

# Target: T3, Heat shock factor protein 1 (Mus musculus, UniProt P38532)
# T3 sequence (P38532 whole entry): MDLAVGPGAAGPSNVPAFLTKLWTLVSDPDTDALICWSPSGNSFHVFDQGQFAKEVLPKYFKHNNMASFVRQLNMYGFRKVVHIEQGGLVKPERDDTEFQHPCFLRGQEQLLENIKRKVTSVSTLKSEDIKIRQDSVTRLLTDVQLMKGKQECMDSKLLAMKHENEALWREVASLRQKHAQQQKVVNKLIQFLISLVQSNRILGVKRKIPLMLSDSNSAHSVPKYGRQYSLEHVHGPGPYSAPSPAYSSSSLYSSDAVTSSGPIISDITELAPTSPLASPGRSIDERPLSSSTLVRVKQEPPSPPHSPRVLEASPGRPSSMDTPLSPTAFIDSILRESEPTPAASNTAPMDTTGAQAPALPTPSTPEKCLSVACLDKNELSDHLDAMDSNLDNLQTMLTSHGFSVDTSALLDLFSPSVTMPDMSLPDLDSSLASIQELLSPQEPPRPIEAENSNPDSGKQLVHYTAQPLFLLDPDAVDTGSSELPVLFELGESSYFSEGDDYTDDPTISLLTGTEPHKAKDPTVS
# Experiment: HSF1 potentiators in luciferase reporter cells, confirmation, cell-based, NIH3T3, luminescence, dose retest (AID 435004);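 further: stress induced by proteasome inhibitor MG132 added 30 min after compound; luciferase reporter driven by HSF1 response element in NIH3T3 cells; actives raise luminescence as potentiators of the MG132 stress response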
# Assay type: functional
# Settings: not given
row,SMILES,EC50
1,COc1ccc(/C=C(\C#N)c2c[nH]c3ccccc23)cc1,39.2 µM (active)

# Tested on: BJ
# Experiment: cytotoxicity toward BJ-TERT fibroblasts, dose response, cell-based, RAS-independent, luminescence (AID 1933)
# Assay type: functional
# Settings: Homo sapiens
row,SMILES,EC50
1,COc1ccc(-n2c(SCC(=O)Nc3ncc(Cl)cc3Cl)nc3ccccc32)cc1,27.8 µM (active)
2,Brc1ccc(-c2nnc3sc(CN4CCN(c5ccccc5)CC4)cn23)cc1,> 150 µM (not active)
3,COc1ccc(/C=C(\C#N)c2c[nH]c3ccccc23)cc1,0.706 µM (inconclusive)
4,O=C(Cc1ccc(N2CCNC2=O)cc1)N1CCCC(Nc2ccc(F)c(F)c2)C1 (stereo not given),9.17 µM (inconclusive)

# Target: Cytochrome P450 2D6 (Homo sapiens, UniProt P10635);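 further: CYP2D6 member of a cytochrome P450 panel assay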
# Experiment: not given
# Settings: not given
# Sequence of Cytochrome P450 2D6 (P10635 whole entry): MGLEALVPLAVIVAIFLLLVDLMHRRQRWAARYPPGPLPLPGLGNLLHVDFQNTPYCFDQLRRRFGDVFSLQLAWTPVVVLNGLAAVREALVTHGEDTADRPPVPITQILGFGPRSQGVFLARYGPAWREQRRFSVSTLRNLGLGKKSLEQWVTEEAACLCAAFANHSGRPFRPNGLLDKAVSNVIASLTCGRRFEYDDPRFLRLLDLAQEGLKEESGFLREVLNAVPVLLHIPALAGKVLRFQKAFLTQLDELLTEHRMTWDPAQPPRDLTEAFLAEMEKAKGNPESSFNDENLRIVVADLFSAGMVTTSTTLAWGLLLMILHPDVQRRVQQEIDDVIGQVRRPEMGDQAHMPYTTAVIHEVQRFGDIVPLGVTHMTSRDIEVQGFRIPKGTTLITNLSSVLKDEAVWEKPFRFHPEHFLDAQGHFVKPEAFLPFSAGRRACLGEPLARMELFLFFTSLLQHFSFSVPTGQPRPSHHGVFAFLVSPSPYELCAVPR
row,SMILES,AC50
1,COC(=O)C1=C(NC(=O)c2ccc(C)c(C)c2)CCS1,31.6 µM (inconclusive)

# Tested on: not listed separately
# Experiment: Luminescence Cell-Based Dose Response HTS to Identify Activators of Luciferase Translation or Activity in H4 […] Cells. [Related pubchem assays: 1829 (Project Summary), 1814 (Primary HTS)]
# Assay type: functional
# Settings: not given
row,SMILES,EC50
1,COC(=O)C1=C(NC(=O)c2ccc(C)c(C)c2)CCS1,13.3 µM (active)

# Target: T1, Polyadenylate-binding protein 1
# Experiment: PABP1 MLLE–PAM2 binding inhibitor potency, dose response, biochemical, fluorescence polarization, FITC-PAM2 peptide (AID 602259)
# Assay type: functional
# Settings: read-out: IC50_Mean
row,SMILES,IC50
1,COc1cc(NC(S)=Nc2ccc(OC(F)F)cc2)cc(OC)c1,> 66 µM (inactive)
2,O=C(O)CSc1c2ccccc2cc2ccccc12,> 66 µM (inactive)
3,NC(=O)c1ccsc1NC(=O)CSc1nc2ccccc2c(=O)n1CCCO,> 66 µM (inactive)
4,COC(=O)c1sccc1N=C(S)Nc1cc(C)cc(C)c1,> 66 µM (inactive)
5,CCOC(=O)c1ccc(N2C(=O)CC(Sc3ncccn3)C2=O)cc1 (stereo not given),> 66 µM (inactive)
6,O=C(CSc1ccc(-c2ccncc2)nn1)c1ccccc1,> 66 µM (inactive)
7,N#Cc1c(O)nc(S)nc1-c1cccc(Cl)c1,> 66 µM (inactive)
8,COc1ccc(C(=O)CN2CCN(S(=O)(=O)c3cccc([N+](=O)[O-])c3)CC2)cc1OC,> 66 µM (inactive)
9,Cc1c(N2C(=O)S/C(=C3\C(=O)Nc4ccccc43)C2=O)c(=O)n(-c2ccccc2)n1C,> 66 µM (inactive)
10,COC(=O)C1=C(NC(=O)c2ccc(C)c(C)c2)CCS1,> 66 µM (inactive)
11,CC=CCn1c(SCc2ccccc2)nc2c1c(=O)[nH]c(=O)n2C,> 66 µM (inactive)

# Tested on: not listed separately
# Experiment: C. albicans growth with fluconazole, confirmation, fluorescence, retest (AID 2467)
# Assay type: functional, cell-based
# Settings: not given
row,SMILES,EC50
1,Brc1ccc(-c2nnc3sc(CN4CCN(c5ccccc5)CC4)cn23)cc1,2.14 µM (active)

# Tested on: not listed separately
# Experiment: Luminescence Cell-Based Dose Retest to Confirm Inhibitors of Cancer Stem Cells. [Related pubchem assays (depositor defined):AID2717, AID2721]
# Assay type: functional
# Settings: Homo sapiens
row,SMILES,AC50
1,COc1ccc(/C=C(\C#N)c2c[nH]c3ccccc23)cc1,0.203 µM (active)
